Data reported in patent US6362369B1, “Phthalic acid diamide derivatives fluorine-containing aniline compounds as starting material, agricultural and horticultural insecticides, and a method for application of the insecticides” (Nihon Nohyaku Co., Ltd., priority 1997, dated 2002).

Test system: diamondback moth (Plutella xylostella)
Test: Insecticidal effect on diamondback moth (Test Example 1)
Format: in vivo
Conditions: diamondback moth; judged by the mortality criterion of Test Example 1
Procedure: Insecticidal effect on diamondback moth (Plutella xylostella) Adult diamondback moths were released and allowed to oviposit on a Chinese cabbage seedling. […] After air-drying, it was allowed to stand in a room thermostated at 25° C. Six days after the immersion, the hatched insects were counted. The mortality was calculated according to the following equation and the insecticidal effect was judged according to the criterion shown below. The test was carried out with triplicate groups of 10 insects. [table]

Compound | Insecticidal effect, Test Example 1
CNC(=O)c1c(C(=O)Nc2cc(Cl)ccc2C)cccc1[N+](=O)[O-] [compound 3] | C (89-80)
CCNC(=O)c1ccccc1C(=O)Nc1ccc(C(F)(F)F)cc1 [compound 7] | A (100)
CCCNC(=O)c1ccccc1C(=O)Nc1ccc(C(F)(F)F)cc1 [compound 14] | A (100)
CCCNC(=O)c1cccc(Cl)c1C(=O)Nc1ccc(OC(F)F)cc1C [compound 16] | A (100)
CC(C)NC(=O)c1ccccc1C(=O)Nc1ccccc1 [compound 20] | A (100)
CC(C)NC(=O)c1ccccc1C(=O)Nc1cccc(SC(F)(F)F)c1 [compound 31] | A (100)
CC(C)NC(=O)c1ccccc1C(=O)Nc1ccc(SC(F)F)cc1 [compound 32] | A (100)
CC(C)NC(=O)c1ccccc1C(=O)Nc1ccc(SCC(F)(F)F)cc1 [compound 33] | A (100)
CC(C)NC(=O)c1ccccc1C(=O)Nc1ccc(SC(F)(F)C(F)(F)Br)cc1 [compound 37] | A (100)
Cc1cc(OC(F)(F)F)ccc1NC(=O)c1ccccc1C(=O)NC(C)C [compound 59] | A (100)
Cc1cc(SC(C)C)ccc1NC(=O)c1ccccc1C(=O)NC(C)C [compound 68] | A (100)
Cc1cc(Oc2c(F)c(F)c(F)c(F)c2F)ccc1NC(=O)c1ccccc1C(=O)NC(C)C [compound 73] | A (100)
Cc1cc(Oc2cccc(C(F)(F)F)c2)ccc1NC(=O)c1ccccc1C(=O)NC(C)C [compound 74] | A (100)
CC(C)NC(=O)c1ccccc1C(=O)Nc1cc(Cl)c(OC(F)F)c(Cl)c1 [compound 84] | A (100)
CC(C)NC(=O)c1c(Cl)cccc1C(=O)Nc1ccc(C(C)(C)C)cc1 [compound 88] | A (100)
CC(C)NC(=O)c1c(Cl)cccc1C(=O)Nc1ccc(OC(F)F)cc1 [compound 92] | A (100)
CC(C)NC(=O)c1c(Cl)cccc1C(=O)Nc1ccc(SCC(F)(F)F)cc1 [compound 101] | A (100)
CC(C)NC(=O)c1c(Cl)cccc1C(=O)Nc1cc(Cl)c(OC(F)F)c(Cl)c1 [compound 151] | A (100)
CC(C)NC(=O)c1cc(Cl)ccc1C(=O)Nc1ccccc1 [compound 168] | A (100)
CC(C)NC(=O)c1cc(Cl)ccc1C(=O)Nc1ccc(F)c(F)c1 [compound 174] | A (100)
CC(C)NC(=O)c1cc(Cl)ccc1C(=O)Nc1cccc(Cl)c1Cl [compound 175] | A (100)
Cc1ccc(F)cc1NC(=O)c1ccc(Cl)cc1C(=O)NC(C)C [compound 179] | A (100)
CC(C)NC(=O)c1ccc(Cl)cc1C(=O)Nc1ccc(OC(F)(F)F)cc1 [compound 185] | A (100)
CC(C)NC(=O)c1ccc(Cl)cc1C(=O)Nc1cccc(Cl)c1Cl [compound 186] | D (79-50)
Cc1c(Cl)cccc1NC(=O)c1cc(Cl)ccc1C(=O)NC(C)C [compound 189] | A (100)
Cc1cc(Cl)ccc1NC(=O)c1cc(Cl)ccc1C(=O)NC(C)C [compound 190] | A (100)

Compound | Insecticidal effect, Test Example 1
Cc1ccc(F)cc1NC(=O)c1cc(Cl)ccc1C(=O)NC(C)C [compound 192] | A (100)
CC(C)NC(=O)c1ccc(Cl)cc1C(=O)Nc1ccc(F)c(F)c1F [compound 194] | A (100)
CCCCc1ccc(NC(=O)c2c(Cl)cccc2C(=O)NC(C)C)cc1 [compound 195] | A (100)
CC(C)NC(=O)c1cccc(Cl)c1C(=O)Nc1ccc(C(F)(F)C(F)(F)C(F)(F)C(F)(F)F)cc1 [compound 199] | A (100)
CC(C)NC(=O)c1cccc(Cl)c1C(=O)Nc1ccc(SCC(F)(F)F)cc1 [compound 202] | A (100)
CC(C)NC(=O)c1cccc(Cl)c1C(=O)Nc1ccc(SC(F)(F)C(F)F)cc1 [compound 203] | A (100)
CC(=O)c1ccc(NC(=O)c2c(Cl)cccc2C(=O)NC(C)C)cc1 [compound 207] | A (100)
CC(C)NC(=O)c1cccc(Cl)c1C(=O)Nc1cccc(Cl)c1Cl [compound 208] | A (100)
CC(C)NC(=O)c1cccc(Cl)c1C(=O)Nc1cc(Cl)c(OC(F)F)c(Cl)c1 [compound 227] | A (100)
CC(C)NC(=O)c1cccc(Cl)c1C(=O)Nc1ccc(OC(F)F)c(F)c1 [compound 233] | A (100)
Cc1c(NC(=O)c2c(Cl)cccc2C(=O)NC(C)C)cccc1OC(F)(F)C(F)Cl (stereo not drawn) [compound 240] | A (100)
CC(C)NC(=O)c1cccc(Cl)c1C(=O)Nc1ccc2[nH]c(C(F)(F)F)nc2c1 [compound 256] | A (100)
Cc1cc(C)c(NC(=O)c2cccc(Br)c2C(=O)NC(C)C)c(C)c1 [compound 265] | A (100)
Cc1c(NC(=O)c2cccc(Br)c2C(=O)NC(C)C)ccc(OC(F)F)c1C [compound 295] | D (79-50)
Cc1cc(C)c(NC(=O)c2c(Br)cccc2C(=O)NC(C)C)c(C)c1 [compound 304] | A (100)
Cc1c(Cl)ccc(NC(=O)c2c(Br)cccc2C(=O)NC(C)C)c1C [compound 308] | A (100)
CCc1cc(Cl)ccc1NC(=O)c1c(Br)cccc1C(=O)NC(C)C [compound 310] | A (100)
Cc1cc(OC(F)F)ccc1NC(=O)c1c(C(=O)NC(C)C)ccc(Br)c1Br [compound 342] | A (100)
Cc1cc(Cl)ccc1NC(=O)c1c(C(=O)NC(C)C)ccc(Br)c1Br [compound 343] | A (100)
Cc1cc(Oc2cccc(C(F)(F)F)c2)ccc1NC(=O)c1cccc(I)c1C(=O)NC(C)C [compound 398] | A (100)
Cc1cc(SC(C)C)ccc1NC(=O)c1cccc(I)c1C(=O)NC(C)C [compound 402] | A (100)
CC(C)NC(=O)c1cccc(I)c1C(=O)Nc1ccc(SC(F)(F)C(F)F)cc1 [compound 422] | A (100)
Cc1cc(Cl)ccc1NC(=O)c1c(I)cccc1C(=O)NC(C)C [compound 428] | A (100)
Cc1c(Cl)ccc(NC(=O)c2c(I)cccc2C(=O)NC(C)C)c1C [compound 434] | A (100)
Cc1cc(OC(C)C)ccc1NC(=O)c1c(I)cccc1C(=O)NC(C)C [compound 442] | A (100)

Same assay, conditions: mortality judged according to the criterion shown in Test Example 1

Compound | Insecticidal effect on diamondback moth (Test Example 1), judged grade
CC(C)NC(=O)c1cccc(I)c1C(=O)Nc1cc(Cl)c(OC(F)F)c(Cl)c1 [compound 449] | A (100)
Cc1cc(Oc2cccc(C(F)(F)F)c2)ccc1NC(=O)c1c(I)cccc1C(=O)NC(C)C [compound 458] | A (100)
Cc1cc(Oc2c(F)c(F)c(F)c(F)c2F)ccc1NC(=O)c1c(I)cccc1C(=O)NC(C)C [compound 459] | A (100)
